Patent US9149475B2, “Protein kinase C inhibitors and uses thereof” (Rigel Pharmaceuticals, Inc., priority 2009, dated 2015)
pIC50: −log10 of the molar value.

What follows are compounds tested on Human primary T cells (assay: IL-2 ELISA, human primary T cell, anti-CD3+CD28+ (whole cell assay)). Conditions: Homo sapiens, T-cell, 24 h, human primary T cells stimulated with anti-CD3 + anti-CD28, 24 hours.
Format: cell-based
Protocol: (§1) Human primary T cells were prepared as follows. Whole blood was obtained from a healthy volunteer, mixed 1:1 with PBS, layered on to Ficoll Hypaque (Amersham Pharmacia Biotech, Piscataway, N.J., Catalog #17-1440-03) in 2:1 blood/PBS:ficoll ratio and centrifuged for 30 minutes at 4° C. at 1750 rpm. The cells at the serum:ficoll interface were recovered and washed twice with 5 volumes of PBS. These freshly isolated human peripheral blood mononuclear cells were cultured in Yssel's medium containing 40 U/mL IL2 in a flask pre-coated with 1 μg/mL αCD3 and 5 μg/mL αCD28 (Anti-Human CD3, BD Pharmingen Catalog #555336, Anti-Human CD28, Beckman Coulter Catalog #IM1376). The cells were stimulated for 3-4 days, then transferred to a fresh flask and maintained in RPMI (RPMI-1640 with L-Glutamine; Mediatech, Inc., Herndon Va., cat. #10-040-CM) with 10% FBS and 40 U/mL IL-2. The primary T-cells were then washed twice with PBS to remove the IL-2.
Human primary T cells (100,000 cells per well) were pre-incubated with or without test compound in Yssel's medium for 1 hr at 37° C. Cells were then stimulated by transferring them to round-bottom 96-well plates pre-coated with 1 μg/ml μCD3 and 5 μg/ml μCD28. For counter assay, cells were instead stimulated by adding 8× stock solutions of PMA and ionomycin in Yssels (for final concentrations of 0.5 ng/ml PMA and 0.1 μM ionomycin, both from Calbiochem). Cells were incubated at 37° C. for 24 hours before 100 μL supernatants were harvested for quantification of IL-2 by ELISA using Human IL-2 Duoset ELISA Kit from R and D Systems, Cat. #DY202E.
as §1, with “Human primary T cell isolation and culture: Human primary” for “Human primary”, “for 30 min at 4°” for “for 30 minutes at 4°”, “at the serum: ficoll interface were” for “at the serum:ficoll interface were”
Primary T cell stimulation and IL2 ELISA: Human primary T cells (100,000 cells per well) were pre-incubated with or without test compound in Yssel's medium for 1 hr at 37° C. Cells were then stimulated by transferring them to round-bottom 96-well plates pre-coated with 1 μg/ml αCD3 and 5 μg/ml αCD28. For counter assay, cells were instead stimulated by adding 8× stock solutions of PMA and ionomycin in Yssels (for final concentrations of 0.5 ng/ml PMA and 0.1 μM ionomycin, both from Calbiochem). Cells were incubated at 37° C. for 24 hours before 100 μL supernatants were harvested for quantification of IL-2 by ELISA using Human IL-2 Duoset ELISA Kit from R and D Systems, Cat. #DY202E.

Structure (SMILES)	pIC50
Cc1ccn(-c2cccc(Nc3ncc(F)c(NC4CC(C)(C)N(C)C(C)(C)C4)n3)c2)n1 [Compound I-1, 5-fluoro-N2-(3-(3-methyl-1H-pyrazol-1-yl)phenyl)-N4-(1,2,2,6,6-pentamethylpiperidin-4-yl)pyrimidine-2,4-diamine]	< 6.00
CN1C(C)(C)CC(Nc2nc(Nc3cccc(-n4ccc(C(F)(F)F)n4)c3)ncc2F)CC1(C)C [Compound I-2, 5-fluoro-N2-(3-(3-(trifluoromethyl)-1H-pyrazol-1-yl)phenyl)-N4-(1,2,2,6,6-pentamethylpiperidin-4-yl)pyrimidine-2,4-diamine]	< 6.00
CC1(C)CC(Nc2nc(Nc3cccc(-n4ccc(C(F)(F)F)n4)c3)ncc2F)CC(C)(C)N1 [Compound I-3, 5-fluoro-N2-(3-(3-(trifluoromethyl)-1H-pyrazol-1-yl)phenyl)-N4-(2,2,6,6-tetramethylpiperidin-4-yl)pyrimidine-2,4-diamine]	< 6.00
Cc1ccc(C)n1-c1cc(Nc2ncc(F)c(NC3CC(C)(C)N(C)C(C)(C)C3)n2)ccc1OC(F)F [Compound I-4, N2-(4-(difluoromethoxy)-3-(2,5-dimethyl-1H-pyrrol-1-yl)phenyl)-5-fluoro-N4-(1,2,2,6,6-pentamethylpiperidin-4-yl)pyrimidine-2,4-diamine]	6.30 to 6.60
Cc1ccc(C)n1-c1cc(Nc2ncc(F)c(NC3CC(C)(C)NC(C)(C)C3)n2)ccc1OC(F)F [Compound I-5, N2-(4-(difluoromethoxy)-3-(2,5-dimethyl-1H-pyrrol-1-yl)phenyl)-5-fluoro-N4-(2,2,6,6-tetramethylpiperidin-4-yl)pyrimidine-2,4-diamine]	6.00 to 6.30
CN1C(C)(C)CC(Nc2nc(Nc3cc(F)cc(OCCn4ccnn4)c3)ncc2F)CC1(C)C [Compound I-6, N2-(3-(2-(1H-1,2,3-triazol-1-yl)ethoxy)-5-fluorophenyl)-5-fluoro-N4-(1,2,2,6,6-pentamethylpiperidin-4-yl)pyrimidine-2,4-diamine]	6.00 to 6.30
Cc1ccn(-c2cccc(Nc3ncc(F)c(NC4CC(C)(C)NC(C)(C)C4)n3)c2)n1 [Compound I-7, 5-fluoro-N2-(3-(3-methyl-1H-pyrazol-1-yl)phenyl)-N4-(2,2,6,6-tetramethylpiperidin-4-yl)pyrimidine-2,4-diamine]	< 6.00
CC1(C)CC(Nc2nc(Nc3cc(F)cc(OCCn4ccnn4)c3)ncc2F)CC(C)(C)N1 [Compound I-8, N2-(3-(2-(1H-1,2,3-triazol-1-yl)ethoxy)-5-fluorophenyl)-5-fluoro-N4-(2,2,6,6-tetramethylpiperidin-4-yl)pyrimidine-2,4-diamine]	< 6.00
Cc1nnnn1-c1cc(Nc2ncc(F)c(NC3CC(C)(C)N(C)C(C)(C)C3)n2)ccc1F [Compound I-9, 5-fluoro-N2-(4-fluoro-3-(5-methyl-1H-tetrazol-1-yl)phenyl)-N4-(1,2,2,6,6-pentamethylpiperidin-4-yl)pyrimidine-2,4-diamine]	> 6.60
Cc1nnnn1-c1cc(Nc2ncc(F)c(NC3CC(C)(C)NC(C)(C)C3)n2)ccc1F [Compound I-10, 5-fluoro-N2-(4-fluoro-3-(5-methyl-1H-tetrazol-1-yl)phenyl)-N4-(2,2,6,6-tetramethylpiperidin-4-yl)pyrimidine-2,4-diamine]	6.30 to 6.60
Cc1nnnn1-c1cc(Nc2ncc(F)c(NC3CC(C)(C)N(CC4CC4)C(C)(C)C3)n2)ccc1F [Compound I-11, N4-(1-(cyclopropylmethyl)-2,2,6,6-tetramethylpiperidin-4-yl)-5-fluoro-N2-(4-fluoro-3-(5-methyl-1H-tetrazol-1-yl)phenyl)pyrimidine-2,4-diamine]	< 6.00
CN1C(C)(C)CC(Nc2nc(Nc3cccc(-n4cncn4)c3)ncc2F)CC1(C)C [Compound I-12, N2-(3-(1H-1,2,4-triazol-1-yl)phenyl)-5-fluoro-N4-(1,2,2,6,6-pentamethylpiperidin-4-yl)pyrimidine-2,4-diamine]	6.00 to 6.30
CCOc1ccc(Nc2ncc(F)c(NC3CC(C)(C)N(C)C(C)(C)C3)n2)cc1-n1c(C)ccc1C [Compound I-13, N2-(4-ethoxy-3-(2,5-dimethyl-1H-pyrrol-1-yl)phenyl)-5-fluoro-N4-(1,2,2,6,6-pentamethylpiperidin-4-yl)pyrimidine-2,4-diamine]	< 6.00
CCOc1ccc(Nc2ncc(F)c(NC3CC(C)(C)NC(C)(C)C3)n2)cc1-n1c(C)ccc1C [Compound I-14, N2-(4-ethoxy-3-(2,5-dimethyl-1H-pyrrol-1-yl)phenyl)-5-fluoro-N4-(2,2,6,6-tetramethylpiperidin-4-yl)pyrimidine-2,4-diamine]	6.00 to 6.30
Cc1ccc(C)n1-c1cc(Nc2ncc(F)c(NC3CC(C)(C)N(C)C(C)(C)C3)n2)ccc1OC(C)C [Compound I-15, N2-(4-isopropyloxy-3-(2,5-dimethyl-1H-pyrrol-1-yl)phenyl)-5-fluoro-N4-(1,2,2,6,6-pentamethylpiperidin-4-yl)pyrimidine-2,4-diamine]	6.00 to 6.30
Cc1ccc(C)n1-c1cc(Nc2ncc(F)c(NC3CC(C)(C)NC(C)(C)C3)n2)ccc1OC(C)C [Compound I-16, N2-(4-isopropyloxy-3-(2,5-dimethyl-1H-pyrrol-1-yl)phenyl)-5-fluoro-N4-(2,2,6,6-tetramethylpiperidin-4-yl)pyrimidine-2,4-diamine]	< 6.00
CC1(C)CC(Nc2nc(Nc3cc(F)cc(OCCn4ccnn4)c3)ncc2C#N)CC(C)(C)N1 [Compound I-17, 4-(2,2,6,6-tetramethylpiperidin-4-ylamino)-2-(3-(2-(1H-1,2,3-triazol-1-yl)ethoxy)-5-fluorophenylamino)pyrimidine-5-carbonitrile]	< 6.00
Cc1nnnn1-c1cc(Nc2ncc(C#N)c(NC3CC(C)(C)NC(C)(C)C3)n2)ccc1F [Compound I-18, 4-(2,2,6,6-tetramethylpiperidin-4-ylamino)-2-(4-fluoro-3-(5-methyl-1H-tetrazol-1-yl)phenylamino)pyrimidine-5-carbonitrile]	6.30 to 6.60
CC1(C)CC(Nc2nc(Nc3cccc(-n4cncn4)c3)ncc2F)CC(C)(C)N1 [Compound I-19, N2-(3-(1H-1,2,4-triazol-1-yl)phenyl)-5-fluoro-N4-(2,2,6,6-tetramethylpiperidin-4-yl)pyrimidine-2,4-diamine]	6.00 to 6.30
Cc1nnnn1-c1cc(Nc2ncc(F)c(NC3CC(C)(C)N(C)C(C)(C)C3)n2)ccc1OC(F)(F)F [Compound I-20, 5-fluoro-N2-(3-(5-methyl-1H-tetrazol-1-yl)-4-(trifluoromethoxy)phenyl)-N4-(1,2,2,6,6-pentamethylpiperidin-4-yl)pyrimidine-2,4-diamine]	> 6.60
Cc1nnnn1-c1cc(Nc2ncc(F)c(NC3CC(C)(C)NC(C)(C)C3)n2)ccc1OC(F)(F)F [Compound I-21, 5-fluoro-N2-(3-(5-methyl-1H-tetrazol-1-yl)-4-(trifluoromethoxy)phenyl)-N4-(2,2,6,6-tetramethylpiperidin-4-yl)pyrimidine-2,4-diamine]	> 6.60
CN1C(C)(C)CC(Nc2nc(Nc3cccc(-n4cccn4)c3)ncc2F)CC1(C)C [Compound I-22, N2-(3-(1H-pyrazol-1-yl)phenyl)-5-fluoro-N4-(1,2,2,6,6-pentamethylpiperidin-4-yl)pyrimidine-2,4-diamine]	6.00 to 6.30
CC1(C)CC(Nc2nc(Nc3cccc(-n4cccn4)c3)ncc2F)CC(C)(C)N1 [Compound I-23, N2-(3-(1H-pyrazol-1-yl)phenyl)-5-fluoro-N4-(2,2,6,6-tetramethylpiperidin-4-yl)pyrimidine-2,4-diamine]	< 6.00
CC1(C)CC(Nc2nc(Nc3ccc(OCCn4ccnn4)c(OC(F)F)c3)ncc2F)CC(C)(C)N1 [Compound I-24, N2-(4-(2-(1H-1,2,3-triazol-1-yl)ethoxy)-3-(difluoromethoxy)phenyl)-5-fluoro-N4-(2,2,6,6-tetramethylpiperidin-4-yl)pyrimidine-2,4-diamine]	6.00 to 6.30
